Assay [1] deals with K. pneumoniae FADDI-KP032. Nature of the assay: In vivo efficacy in mouse blood infection model (neutropenic Swiss mice). The settings on record: compound, free base 4 mg/kg intravenously 2 h after inoculation, blood at 4 h. In short, it runs like this:
(§1)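 Activity expressed as Δlog10 CFU/mL blood, treated minus saline control, 4 h after a single 4 mg/kg (free base) i.v. dose given 2 h post-infection. Bloodstream infection from i.v. early log-phase inoculum in Swiss mice made neutropenic by i.p. cyclophosphamide on days −4 (150 mg/kg) and −1 (100 mg/kg).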

The next assay has as its system A. baumannii ATCC 19606. The description is as above. Particulars: compound, free base 4 mg/kg intravenously 2 h after inoculation, blood at 4 h. The procedure, abridged:
as §1

For a further assay, the system named is P. aeruginosa ATCC 27853. The assay is described as above. The settings on record: compound, free base 4 mg/kg intravenously 2 h after inoculation, blood at 4 h. The procedure, abridged: as §1
Another assay deals with Acinetobacter baumannii. In short, it runs like this:
(§2)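 Lipopeptide TFA salts are serially diluted in cation-adjusted Mueller-Hinton broth and inoculated per the CLSI M100-S18 broth microdilution method. The MIC is then recorded, with polymyxin B sulphate included as a control.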

The subject of the next assay is Enterobacter cloacae. In short, it runs like this:
as §2

For another assay, the system named is Pseudomonas aeruginosa. The procedure, abridged:
as §2

The subject of a further assay is Klebsiella pneumoniae. In short, it runs like this: as §2

Molecules are shown by their SMILES. In brackets after ≈: the same amount, converted by molar mass. Positions of bridges follow the written chain, without caps; N, C: chain ends. Non-standard residues stand in square brackets, D forms with d. Residues, ends and D or L forms follow the SMILES beside them. *: point of attachment. dNle = CCCC[C@@H](N)C(=O)O; X1 = CC[C@H](C)CCCCC(=O)*; Octanoyl = CCCCCCCC(=O)*; X5 = Cc1cc(C(=O)*)ccc1Cl; Dab = NCC[C@H](N)C(=O)O; Abu = CC[C@H](N)C(=O)O; Dap = NC[C@H](N)C(=O)O

This note sets out measurements from patent publication USRE48335E1, “Polymyxin derivatives as antimicrobial compounds” (priority 2014, dated 2020).

With `CCCCCCCC(=O)N[C@@H](CCN)C(=O)N[C@H](C(=O)N[C@H](CO)C(=O)N[C@H]1CCNC(=O)[C@H]([C@@H](C)O)NC(=O)[C@H](CCN)NC(=O)[C@H](CCN)NC(=O)[C@H]([C@@H](C)O)NC(=O)[C@@H](CCCC)NC(=O)[C@H](CCN)NC1=O)[C@@H](C)O` [Compound 7] (Octanoyl-[Dab]T[dS][Dab][Dab][dNle]T[Dab][Dab]T; lactam 4-C), in assay [1], the “Δ log (Treated-Control at 4 h)” value is listed as −3.39 log10 CFU/mL. Besides, the “Δ log (Treated-Control at 4 h)” value with A. baumannii ATCC 19606 is recorded as −2.87 log10 CFU/mL. In addition, the “Δ log (Treated-Control at 4 h)” value with P. aeruginosa ATCC 27853 is given as −0.61 log10 CFU/mL. For the same molecule, in the assay with Acinetobacter baumannii, the MIC (as a rule, the smallest concentration in the dilution series that meets the test's criterion for growth inhibition) came to 0.25 µg/mL (≈ 0.221 µM); the “Minimum inhibitory concentration, Ab A ATCC 17978” value was less than 0.125 µg/mL; the “Minimum inhibitory concentration, Ab ATCC 19606” value is 0.25 µg/mL (≈ 0.221 µM); the “Minimum inhibitory concentration, Ab FADDI-AB034” value is less than 0.125 µg/mL. Besides, in the assay with Enterobacter cloacae, the “Minimum inhibitory concentration, Ec FADDI-EC001” value amounted to 0.25 µg/mL (≈ 0.221 µM); the “Minimum inhibitory concentration, Ec FADDI-EC003” value came to 0.25 µg/mL (≈ 0.221 µM); the “Minimum inhibitory concentration, Ec FADDI-EC006” value amounted to 0.5 µg/mL (≈ 0.442 µM). In the assay on Pseudomonas aeruginosa, the “Minimum inhibitory concentration, Pa ATCC 27853” value is 2 µg/mL (≈ 1.77 µM); the “Minimum inhibitory concentration, Pa FADDI-PA022” value was found to be 4 µg/mL (≈ 3.54 µM); the “Minimum inhibitory concentration, Pa FADDI-PA025” value is more than 32 µg/mL. In the assay on Klebsiella pneumoniae, this molecule showed an MIC of less than 0.125 µg/mL.
As for `CC[C@H](C)CCCCC(=O)N[C@@H](CCN)C(=O)N[C@H](C(=O)N[C@H](CO)C(=O)N[C@H]1CCNC(=O)[C@H]([C@@H](C)O)NC(=O)[C@H](CCN)NC(=O)[C@H](CCN)NC(=O)[C@H]([C@@H](C)O)NC(=O)[C@@H](CC(C)C)NC(=O)[C@H](CCN)NC1=O)[C@@H](C)O` [Compound 150, polymyxin D1] (X1-[Dab]T[dS][Dab][Dab][dL]T[Dab][Dab]T; lactam 4-C), the “Δ log (Treated-Control at 4 h)” value in assay [1] is on record as −3.77 log10 CFU/mL. Moreover, the “Δ log (Treated-Control at 4 h)” value in the assay on A. baumannii ATCC 19606 was −1.46 log10 CFU/mL. Moreover, the “Δ log (Treated-Control at 4 h)” value in the assay on P. aeruginosa ATCC 27853 is on record as −0.29 log10 CFU/mL. Moreover, in the assay on Acinetobacter baumannii, the MIC was determined as 0.25 µg/mL (≈ 0.218 µM); the “Minimum inhibitory concentration (MIC), Ab ATCC 17978” value was found to be 0.25 µg/mL (≈ 0.218 µM); the “Minimum inhibitory concentration (MIC), Ab ATCC 19606” value came out at 0.25 µg/mL (≈ 0.218 µM); the “Minimum inhibitory concentration (MIC), Ab FADDI-AB034” value amounted to 0.25 µg/mL (≈ 0.218 µM). Besides, in the assay on Enterobacter cloacae, the “Minimum inhibitory concentration (MIC), Ec FADDI-EC001” value stood at 0.5 µg/mL (≈ 0.437 µM); the “Minimum inhibitory concentration (MIC), Ec FADDI-EC003” value is 0.5 µg/mL (≈ 0.437 µM); the “Minimum inhibitory concentration (MIC), Ec FADDI-EC006” value was determined as 0.5 µg/mL (≈ 0.437 µM). In the assay with Pseudomonas aeruginosa, the MIC was 4 µg/mL (≈ 3.5 µM); the “Minimum inhibitory concentration (MIC), Pa ATCC 27853” value is 4 µg/mL (≈ 3.5 µM); the “Minimum inhibitory concentration (MIC), Pa FADDI-PA022” value amounted to 4 µg/mL (≈ 3.5 µM); the “Minimum inhibitory concentration (MIC), Pa FADDI-PA025” value was more than 32 µg/mL. Besides, the MIC in the assay with Klebsiella pneumoniae is 0.5 µg/mL (≈ 0.437 µM).
Consider `CC[C@@H]1NC(=O)[C@@H](CC(C)C)NC(=O)[C@H](CCN)NC(=O)[C@@H](NC(=O)[C@H](CN)NC(=O)[C@@H](NC(=O)[C@H](CCN)NC(=O)c2ccc(Cl)c(C)c2)[C@@H](C)O)CCNC(=O)[C@H]([C@@H](C)O)NC(=O)[C@H](CCN)NC(=O)[C@H](CCN)NC1=O` [Compound 104] (X5-[Dab]T[Dap][Dab][Dab][dL][Abu][Dab][Dab]T; lactam 4-C), for which, in assay [1], the “Δ log (Treated-Control at 4 h)” value is listed as −3.23 log10 CFU/mL. Besides, the “Δ log (Treated-Control at 4 h)” value with A. baumannii ATCC 19606 is reported as −1.35 log10 CFU/mL. For the same molecule, the “Δ log (Treated-Control at 4 h)” value with P. aeruginosa ATCC 27853 is −3.08 log10 CFU/mL. Further, in the assay on Acinetobacter baumannii, the MIC is 1 µg/mL (≈ 0.877 µM); the “Minimum inhibitory concentration, Ab A ATCC 17978” value was found to be 0.5 µg/mL (≈ 0.439 µM); the “Minimum inhibitory concentration, Ab ATCC 19606” value stood at 1 µg/mL (≈ 0.877 µM); the “Minimum inhibitory concentration, Ab FADDI-AB034” value is 0.25 µg/mL (≈ 0.219 µM). Also, in the assay on Enterobacter cloacae, the “Minimum inhibitory concentration, Ec FADDI-EC001” value was 0.5 µg/mL (≈ 0.439 µM); the “Minimum inhibitory concentration, Ec FADDI-EC003” value was found to be 0.25 µg/mL (≈ 0.219 µM); the “Minimum inhibitory concentration, Ec FADDI-EC006” value is 0.5 µg/mL (≈ 0.439 µM). Moreover, in the assay on Pseudomonas aeruginosa, the MIC is 0.5 µg/mL (≈ 0.439 µM); the “Minimum inhibitory concentration, Pa ATCC 27853” value was 0.5 µg/mL (≈ 0.439 µM); the “Minimum inhibitory concentration, Pa FADDI-PA022” value came out at 0.5 µg/mL (≈ 0.439 µM); the “Minimum inhibitory concentration, Pa FADDI-PA025” value was determined as 2 µg/mL (≈ 1.75 µM). The molecule also had an MIC against Klebsiella pneumoniae of 1 µg/mL (≈ 0.877 µM).
For the molecule `CCCCCCCC(=O)N[C@@H](CCN)C(=O)N[C@H](C(=O)N[C@@H](CN)C(=O)N[C@H]1CCNC(=O)[C@H]([C@@H](C)O)NC(=O)[C@H](CCN)NC(=O)[C@H](CCN)NC(=O)[C@H]([C@@H](C)O)NC(=O)[C@@H](Cc2ccccc2)NC(=O)[C@H](CCN)NC1=O)[C@@H](C)O` [Compound 129] (Octanoyl-[Dab]T[Dap][Dab][Dab][dF]T[Dab][Dab]T; lactam 4-C), in assay [1], the “Δ log (Treated-Control at 4 h)” value is −3.64 log10 CFU/mL. Further, the “Δ log (Treated-Control at 4 h)” value in the assay with A. baumannii ATCC 19606 is listed as −1.42 log10 CFU/mL. Besides, the “Δ log (Treated-Control at 4 h)” value in the assay on P. aeruginosa ATCC 27853 was −3.45 log10 CFU/mL. In the assay on Acinetobacter baumannii, the MIC is 0.5 µg/mL (≈ 0.43 µM); the “Minimum inhibitory concentration, Ab A ATCC 17978” value was determined as 0.25 µg/mL (≈ 0.215 µM); the “Minimum inhibitory concentration, Ab ATCC 19606” value was 0.5 µg/mL (≈ 0.43 µM); the “Minimum inhibitory concentration, Ab FADDI-AB034” value came out at 0.25 µg/mL (≈ 0.215 µM). In the assay with Enterobacter cloacae, the “Minimum inhibitory concentration, Ec FADDI-EC001” value was 0.5 µg/mL (≈ 0.43 µM); the “Minimum inhibitory concentration, Ec FADDI-EC003” value is less than 0.125 µg/mL; the “Minimum inhibitory concentration, Ec FADDI-EC006” value is 0.5 µg/mL (≈ 0.43 µM). Besides, in the assay on Pseudomonas aeruginosa, the MIC was 0.5 µg/mL (≈ 0.43 µM); the “Minimum inhibitory concentration, Pa ATCC 27853” value was determined as 0.5 µg/mL (≈ 0.43 µM); the “Minimum inhibitory concentration, Pa FADDI-PA022” value was 1 µg/mL (≈ 0.86 µM); the “Minimum inhibitory concentration, Pa FADDI-PA025” value amounted to 2 µg/mL (≈ 1.72 µM). In the assay on Klebsiella pneumoniae, this molecule had an MIC of less than 0.125 µg/mL.
Take `CCCCCCCC(=O)N[C@@H](CCN)C(=O)N[C@H](C(=O)N[C@@H](CN)C(=O)N[C@H]1CCNC(=O)[C@H]([C@@H](C)O)NC(=O)[C@H](CCN)NC(=O)[C@H](CCN)NC(=O)[C@H](CC)NC(=O)[C@@H](CC(C)C)NC(=O)[C@H](CCN)NC1=O)[C@@H](C)O` [Compound 46] (Octanoyl-[Dab]T[Dap][Dab][Dab][dL][Abu][Dab][Dab]T; lactam 4-C): the “Δ log (Treated-Control at 4 h)” value in assay [1] is recorded as −2.93 log10 CFU/mL. In the assay with A. baumannii ATCC 19606, the “Δ log (Treated-Control at 4 h)” value is recorded as −1.56 log10 CFU/mL. Moreover, the “Δ log (Treated-Control at 4 h)” value in the assay on P. aeruginosa ATCC 27853 is reported as −2.53 log10 CFU/mL. In the assay on Acinetobacter baumannii, the MIC came to 0.25 µg/mL (≈ 0.225 µM); the “Minimum inhibitory concentration, Ab A ATCC 17978” value worked out at 0.25 µg/mL (≈ 0.225 µM); the “Minimum inhibitory concentration, Ab ATCC 19606” value is 0.25 µg/mL (≈ 0.225 µM); the “Minimum inhibitory concentration, Ab FADDI-AB034” value stood at 0.25 µg/mL (≈ 0.225 µM). Also, in the assay with Enterobacter cloacae, the “Minimum inhibitory concentration, Ec FADDI-EC001” value was less than 0.125 µg/mL; the “Minimum inhibitory concentration, Ec FADDI-EC003” value was found to be 0.25 µg/mL (≈ 0.225 µM); the “Minimum inhibitory concentration, Ec FADDI-EC006” value is less than 0.125 µg/mL. In addition, in the assay with Pseudomonas aeruginosa, the MIC stood at 0.5 µg/mL (≈ 0.449 µM); the “Minimum inhibitory concentration, Pa ATCC 27853” value was 0.5 µg/mL (≈ 0.449 µM); the “Minimum inhibitory concentration, Pa FADDI-PA022” value was 0.5 µg/mL (≈ 0.449 µM); the “Minimum inhibitory concentration, Pa FADDI-PA025” value was found to be 2 µg/mL (≈ 1.8 µM). The MIC in the assay with Klebsiella pneumoniae is less than 0.125 µg/mL.
